Two compounds from patent US20240051937A1, “ISOINDOLINONE AMIDE COMPOUNDS USEFUL TO TREAT DISEASES ASSOCIATED WITH GSPT1” (Monte Rosa Therapeutics, Inc., priority 2021, published 2024) can be followed below.

Assay [1] addresses T1, Full length wild-type cereblon CRBN (Homo sapiens, UniProt Q96SW2).
T1 construct: Full length wild-type cereblon CRBN (80.0 nM, 10 μL) was incubated in assay buffer
Description: Fluorescence polarization (FP) assay indicating cereblon binding. Summed up:
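CRBN (80.0 nM) preincubated 30 min at RT with compound (300–0.937 or 3000–9.3 nM, 12 points) in 20 mM HEPES pH 8.0, 150 NaCl, 0.5 mM TCEP, 0.05% Tween 20. Cy5-type thalidomide-linked probe added at 5 nM final; FP read after 12 h (ex 590/em 675 nm), normalized to DMSO, IC50 derived.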
(In general: Fluorescence polarisation rises when a labelled molecule tumbles more slowly, as on binding a larger partner.)

For the next assay, the target named is T2, ZFP91 (Homo sapiens, UniProt Q96JP5+Q96SW2).
T2 construct: MM1S cells were purchased from ATCC (cat. Number CRL-2974); host or cells: MM1S cells
Description: Selectivity determination by Western blot assay in MM1S cells: ZFP91. It is filed as cell-based. The note with it: MM1S cells, 0.3, 3 and 30 μM, 6 hours. How it is done: (§1) MM1S cells were purchased from ATCC (cat. Number CRL-2974), sub-cultured in […] RPMI 1640 with 10% FBS, supplemented with Ix P/S and incubated at 37° C., […]. Compounds were stored as 10 mM DMSO stock. For the assay, MM1S cells (3 million cells/well) were plated in 6-well plates and incubated over night. Cells were treated with respective compounds using a serial dilution: 0.3 μM, 3 μM and 30 μM as well as a vehicle only (DMSO) control for 6 hours. Media with suspension cells was subsequently transferred to 15 mL conical tubes, wells rinsed twice with ice-cold PBS and merged with cell suspension in respective 15 mL conical tube. Cells were spinned down, supernatant aspirated, pellets resuspended in ice-cold PBS and transferred to microtubes. Cells were spinned down, supernatant aspirated and pellets resuspended in 120 μL RIPA lysis buffer supplemented with protease and phosphatase inhibitors. Cell lysates were incubated on ice for 20 minutes followed by centrifugation at >20,000×g for 5 min. Supernatants were transferred to fresh microtubes and stored at −80° C. Total protein concentration was determined using a BCA assay with a BSA standard curve and concentration of all samples was adjusted to 1 mg/mL. […] Chemiluminescence signals were then detected using a LAS-4000 system with default settings and signals quantified using Image Studio Lite software (version 5.2). […]

For another assay, the target named is T3, CK1alpha (Homo sapiens, UniProt P48729+Q96SW2).
T3 construct: MM1S cells were purchased from ATCC (cat. Number CRL-2974); host or cells: MM1S cells
Description: Selectivity determination by Western blot assay in MM1S cells: CK1alpha. The format is cell-based. The note with it: MM1S cells, 0.3, 3 and 30 μM, 6 hours. Here is the method: as §1
(Immunoblotting shows a protein as a band on a membrane.)

Another assay addresses T4, IKZF3 (Homo sapiens, UniProt Q96SW2+Q9UKT9).
T4 construct: MM1S cells were purchased from ATCC (cat. Number CRL-2974); host or cells: MM1S cells
Description: Selectivity determination by Western blot assay in MM1S cells: IKZF3. The format is cell-based. The arrangement: key: A represents no degradation observed at 30 μM; B represents trace degradation at 30 μM (below 20%); C represents weak degradation at 30 μM (below 50%); D represents degradation at 30 μM (>90%); E represents degradation at 3 μM (>90%); F represents degradation at 0.3 μM (>90%). As to conditions: MM1S cells, 0.3, 3 and 30 μM, 6 hours. Here is the method:
as §1

Another assay has as its target GSPT1 (Homo sapiens, UniProt P15170+Q96SW2). Description: Selectivity determination by Western blot assay in MM1S cells: GSPT1. It is filed as cell-based. The arrangement: MM1S cells were purchased from ATCC (cat. Number CRL-2974); host or cells: MM1S cells. The note with it: MM1S cells, 0.3, 3 and 30 μM, 6 hours. How it is done:
as §1

In another assay the target is T5, IKZF1 (Homo sapiens, UniProt Q13422+Q96SW2).
T5 construct: MM1S cells were purchased from ATCC (cat. Number CRL-2974); host or cells: MM1S cells
The assay can be described thus: Selectivity determination by Western blot assay in MM1S cells: IKZF1. The format is cell-based. The arrangement: key: A represents no degradation observed at 30 μM; B represents trace degradation at 30 μM (below 20%); C represents weak degradation at 30 μM (below 50%); D represents degradation at 30 μM (>90%); E represents degradation at 3 μM (>90%); F represents degradation at 0.3 μM (>90%). As to conditions: MM1S cells, 0.3, 3 and 30 μM, 6 hours. How it is done: as §1

[2] abbreviates: cereblon binding, CRBN 80.0 nM, probe 5 nM, FP read after 12 hours, read-out: rFP IC50.
The mark [3] stands for this setting: fluorescence polarization assay, read-out: IC50 value (cereblon binding).

Each structure is given as a SMILES string. Like-named read-outs stand apart in the source and are kept apart here.

T1 sequence (Q96SW2 whole entry): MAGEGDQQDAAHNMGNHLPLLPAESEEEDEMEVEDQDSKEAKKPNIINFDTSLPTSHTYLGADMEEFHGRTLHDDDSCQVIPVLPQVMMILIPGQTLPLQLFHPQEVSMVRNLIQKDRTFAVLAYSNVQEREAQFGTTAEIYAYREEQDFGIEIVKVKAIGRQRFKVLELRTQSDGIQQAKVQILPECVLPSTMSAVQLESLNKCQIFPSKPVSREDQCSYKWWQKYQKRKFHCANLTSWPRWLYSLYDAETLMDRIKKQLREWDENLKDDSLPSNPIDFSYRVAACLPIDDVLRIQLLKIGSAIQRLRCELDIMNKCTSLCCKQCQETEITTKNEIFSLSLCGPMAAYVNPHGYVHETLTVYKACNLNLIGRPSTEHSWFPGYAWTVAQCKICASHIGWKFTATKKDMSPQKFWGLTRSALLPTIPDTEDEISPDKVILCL
T3 sequence (P48729 whole entry): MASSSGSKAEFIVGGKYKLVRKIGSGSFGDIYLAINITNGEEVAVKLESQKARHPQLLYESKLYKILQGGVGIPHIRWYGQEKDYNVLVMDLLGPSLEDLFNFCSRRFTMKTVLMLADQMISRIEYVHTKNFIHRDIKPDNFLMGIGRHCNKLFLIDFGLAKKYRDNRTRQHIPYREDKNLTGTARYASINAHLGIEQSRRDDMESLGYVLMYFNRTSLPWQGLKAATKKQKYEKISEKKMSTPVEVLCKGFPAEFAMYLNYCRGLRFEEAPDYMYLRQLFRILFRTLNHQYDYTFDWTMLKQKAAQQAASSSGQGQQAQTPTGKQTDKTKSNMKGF
T3 sequence (Q96SW2 whole entry): as the sequence (Q96SW2 whole entry) above
T3 sequence (Q16531 whole entry partner): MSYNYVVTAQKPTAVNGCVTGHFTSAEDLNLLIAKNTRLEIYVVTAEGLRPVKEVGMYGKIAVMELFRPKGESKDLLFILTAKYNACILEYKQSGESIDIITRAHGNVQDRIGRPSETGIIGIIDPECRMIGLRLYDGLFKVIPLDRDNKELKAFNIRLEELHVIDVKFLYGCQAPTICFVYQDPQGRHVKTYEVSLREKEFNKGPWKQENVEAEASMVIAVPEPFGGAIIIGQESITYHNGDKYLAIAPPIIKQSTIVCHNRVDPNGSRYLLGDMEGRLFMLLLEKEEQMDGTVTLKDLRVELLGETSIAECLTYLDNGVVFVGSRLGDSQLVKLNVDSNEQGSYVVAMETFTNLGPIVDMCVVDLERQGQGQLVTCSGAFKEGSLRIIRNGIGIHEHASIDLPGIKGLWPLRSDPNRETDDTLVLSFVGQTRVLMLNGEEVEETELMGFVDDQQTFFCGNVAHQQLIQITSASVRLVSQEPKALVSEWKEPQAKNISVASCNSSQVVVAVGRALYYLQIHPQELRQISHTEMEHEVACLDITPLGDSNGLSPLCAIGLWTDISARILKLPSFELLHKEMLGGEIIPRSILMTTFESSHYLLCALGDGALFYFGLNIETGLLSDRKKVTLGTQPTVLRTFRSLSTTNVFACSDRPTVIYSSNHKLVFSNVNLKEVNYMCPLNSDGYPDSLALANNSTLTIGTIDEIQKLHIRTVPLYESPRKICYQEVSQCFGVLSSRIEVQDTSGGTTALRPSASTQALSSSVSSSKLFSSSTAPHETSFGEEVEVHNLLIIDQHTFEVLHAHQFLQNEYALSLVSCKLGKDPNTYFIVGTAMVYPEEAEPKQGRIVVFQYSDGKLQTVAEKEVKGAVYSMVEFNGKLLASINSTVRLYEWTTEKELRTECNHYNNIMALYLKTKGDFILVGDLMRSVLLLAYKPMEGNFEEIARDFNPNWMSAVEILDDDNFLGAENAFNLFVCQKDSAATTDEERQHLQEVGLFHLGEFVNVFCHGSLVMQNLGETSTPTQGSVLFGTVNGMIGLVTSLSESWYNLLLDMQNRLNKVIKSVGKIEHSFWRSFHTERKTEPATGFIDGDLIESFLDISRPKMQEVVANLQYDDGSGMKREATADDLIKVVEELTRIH
T4 sequence (Q9UKT9 whole entry): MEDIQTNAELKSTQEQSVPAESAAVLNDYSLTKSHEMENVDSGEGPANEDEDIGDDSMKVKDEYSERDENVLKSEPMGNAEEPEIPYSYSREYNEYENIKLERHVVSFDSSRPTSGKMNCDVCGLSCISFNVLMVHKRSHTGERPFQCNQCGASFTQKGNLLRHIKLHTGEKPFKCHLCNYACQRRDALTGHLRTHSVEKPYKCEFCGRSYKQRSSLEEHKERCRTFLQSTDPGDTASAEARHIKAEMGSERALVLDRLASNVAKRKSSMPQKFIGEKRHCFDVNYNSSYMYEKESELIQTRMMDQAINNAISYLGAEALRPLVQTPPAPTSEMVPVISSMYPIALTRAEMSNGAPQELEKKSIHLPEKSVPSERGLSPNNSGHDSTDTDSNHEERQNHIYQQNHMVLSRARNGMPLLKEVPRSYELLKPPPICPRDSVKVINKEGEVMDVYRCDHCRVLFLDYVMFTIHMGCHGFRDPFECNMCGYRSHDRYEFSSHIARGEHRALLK
T4 sequence (Q96SW2 whole entry): as the sequence (Q96SW2 whole entry) above
T4 sequence (Q16531 whole entry partner): as the sequence (Q16531 whole entry partner) above
GSPT1, sequence (P15170 whole entry): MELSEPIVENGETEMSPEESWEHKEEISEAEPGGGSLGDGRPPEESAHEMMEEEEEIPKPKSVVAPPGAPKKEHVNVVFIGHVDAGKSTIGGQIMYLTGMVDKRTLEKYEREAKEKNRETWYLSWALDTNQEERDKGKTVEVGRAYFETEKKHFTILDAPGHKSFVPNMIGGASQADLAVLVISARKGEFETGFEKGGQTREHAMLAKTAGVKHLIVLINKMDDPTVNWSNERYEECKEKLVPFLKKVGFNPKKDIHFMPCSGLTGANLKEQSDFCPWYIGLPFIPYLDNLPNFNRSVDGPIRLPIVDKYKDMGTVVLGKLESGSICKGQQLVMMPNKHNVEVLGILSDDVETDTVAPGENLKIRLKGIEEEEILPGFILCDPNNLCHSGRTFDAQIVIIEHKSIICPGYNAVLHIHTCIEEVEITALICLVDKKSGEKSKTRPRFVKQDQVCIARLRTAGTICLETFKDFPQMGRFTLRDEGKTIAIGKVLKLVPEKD
GSPT1, sequence (Q96SW2 whole entry): as the sequence (Q96SW2 whole entry) above
GSPT1, sequence (Q16531 whole entry partner): as the sequence (Q16531 whole entry partner) above
T5 sequence (Q13422 whole entry): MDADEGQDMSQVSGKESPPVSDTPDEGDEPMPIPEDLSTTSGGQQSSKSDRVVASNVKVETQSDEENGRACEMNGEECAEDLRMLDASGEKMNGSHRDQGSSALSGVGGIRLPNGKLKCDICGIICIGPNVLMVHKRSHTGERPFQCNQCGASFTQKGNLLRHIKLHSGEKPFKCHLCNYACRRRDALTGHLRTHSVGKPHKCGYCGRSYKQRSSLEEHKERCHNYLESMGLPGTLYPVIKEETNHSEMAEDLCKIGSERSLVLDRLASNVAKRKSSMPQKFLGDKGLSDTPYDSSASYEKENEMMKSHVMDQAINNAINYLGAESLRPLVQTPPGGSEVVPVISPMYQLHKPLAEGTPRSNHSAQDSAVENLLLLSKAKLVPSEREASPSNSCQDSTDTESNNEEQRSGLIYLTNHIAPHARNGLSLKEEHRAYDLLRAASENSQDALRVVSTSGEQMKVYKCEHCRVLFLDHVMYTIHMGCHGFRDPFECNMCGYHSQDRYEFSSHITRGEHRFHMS
T5 sequence (Q96SW2 whole entry): as the sequence (Q96SW2 whole entry) above
T5 sequence (Q16531 whole entry partner): as the sequence (Q16531 whole entry partner) above
T2 sequence (Q96JP5 2-570 limits assumed): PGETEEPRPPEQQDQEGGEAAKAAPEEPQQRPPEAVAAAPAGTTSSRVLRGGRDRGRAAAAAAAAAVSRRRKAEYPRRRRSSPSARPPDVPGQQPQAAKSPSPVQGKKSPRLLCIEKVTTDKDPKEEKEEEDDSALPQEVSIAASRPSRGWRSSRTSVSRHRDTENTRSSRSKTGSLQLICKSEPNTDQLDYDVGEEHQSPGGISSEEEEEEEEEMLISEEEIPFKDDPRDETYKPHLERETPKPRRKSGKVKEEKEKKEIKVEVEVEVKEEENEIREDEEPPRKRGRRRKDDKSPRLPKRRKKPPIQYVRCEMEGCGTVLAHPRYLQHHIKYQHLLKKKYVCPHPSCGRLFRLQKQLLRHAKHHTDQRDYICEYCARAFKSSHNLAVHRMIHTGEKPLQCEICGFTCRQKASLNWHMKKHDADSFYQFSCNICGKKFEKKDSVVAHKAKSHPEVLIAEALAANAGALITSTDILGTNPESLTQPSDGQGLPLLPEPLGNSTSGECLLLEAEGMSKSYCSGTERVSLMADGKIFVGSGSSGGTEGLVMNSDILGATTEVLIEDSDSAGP
T2 sequence (Q96SW2 whole entry): as the sequence (Q96SW2 whole entry) above
T2 sequence (Q16531 whole entry partner): as the sequence (Q16531 whole entry partner) above

The term IC50 denotes the midpoint of a concentration-inhibition curve. Turning to `Cc1c(Cl)cc(NC(=O)CCc2ccc3c(c2)C(=O)N(C2CCC(=O)NC2=O)C3)cc1CN1CCOCC1` (centres unmarked) [Compound 2], the values for the IC50 in assay [1] (setting [2]) and in assay [1] (setting [3]) were ≤ 500 nM and < 1100 nM, respectively. For the same compound, the ZFP91 degradation code entry at ZFP91 is given as “C (C represents weak degradation at 30 μM (below 50%))”. For the same compound, at CK1alpha, the CK1alpha degradation code result is given as “C (C represents weak degradation at 30 μM (below 50%))”. In addition, the IKZF3 degradation code result at IKZF3 is reported as “C (C represents weak degradation at 30 μM (below 50%))”. Moreover, the GSPT1 degradation code entry on GSPT1 was “F (F represents degradation at 0.3 μM (>90%))”. Also, the IKZF1 degradation code result at IKZF1 is given as “A”.

For the compound `Cc1ccc(NC(=O)CCc2ccc3c(c2)C(=O)N(C2CCC(=O)NC2=O)C3)cc1Cl` (centres unmarked) [Compound 1], the IC50 is ≤ 500 nM in assay [1] (setting [2]) and < 1100 nM in assay [1] (setting [3]). Moreover, the ZFP91 degradation code entry at ZFP91 is recorded as “B (B represents trace degradation at 30 μM (below 20%))”. At CK1alpha, the CK1alpha degradation code result is listed as “B (B represents trace degradation at 30 μM (below 20%))”. The IKZF3 degradation code result on IKZF3 is given as “A”. Besides, at GSPT1, the GSPT1 degradation code entry is “F (F represents degradation at 0.3 μM (>90%))”. Moreover, the IKZF1 degradation code result on IKZF1 is recorded as “A”.
